Where no end group is shown, it is not given here.
Columns and labels:
HCMV strain AD169 = assay: HCMV plaque formation assay in MRC-5 cells; type: cell-based; conditions: for inhibition of HCMV plaque formation as compared to the virus control experiment: 10 micrograms per ml, 7-10 days
HUVEC = assay: Endothelial tube formation assay; type: cell-based, human; conditions: 10 micrograms per ml, 20 hours
Text: Positive control was vehicle only.

Interleukin-5 (IL-5) = assay: Th1/Th2 cytokine profiling assay, IL-5; type: cell-based, mouse; conditions: 10 micrograms per ml; Ovalbumin-restimulated Balb/c spleen cells, 72 hours
Method: (§1) The Balb/c mice (originated in 1923, it is a popular strain and is used in many different research disciplines. Also classified as an inbred from the production of 20 size) were immunized on Days 1, 15, and 29 with Ovalbumin (Ovalbumin is the main protein found in egg white, commonly used to stimulate an immunological reaction in test animals) in PBS (5 micrograms/injection). On day 50, spleens of the mice were harvested (3 weeks after last boost with Ovalbumin). Cells were cultured (2×10^5/well in triplicate) and incubated with culture medium or test peptides—10 micrograms per ml—for 30 min. Thereafter, additional Ovalbumin was added to the cells at 10 micrograms/ml for in vitro restimulation of the cells. 72 hours later, cell supernatants were harvested and assayed using the Becton Dickinson Mouse Th1/Th2 Cytokine CBA Kit. This kit can be used to measure Interleukin-2 (IL-2), Interleukin-4 (IL-4), Interleukin-5 (IL-5), Interferon-γ (IFN-γ), and Tumor Necrosis Factor-a (TNF-a) protein levels in a single sample. The kit performance has been optimized for analysis of physiologically relevant concentrations (μg/ml levels) of specific cytokine proteins in tissue culture supernatants and serum samples.

Human A549 cells = assay: Apoptosis prevention assay (Annexin-5, C2 ceramide); type: cell-based; conditions: 10 micrograms per ml; A549 pretreated 30 min, then C2 ceramide
Interferon-γ (IFN-γ) = assay: Th1/Th2 cytokine profiling assay, IFN-γ; type: cell-based, mouse; conditions: 10 micrograms per ml; Ovalbumin-restimulated Balb/c spleen cells, 72 hours
Method: as §1

[1] = test system: hepatitis B virus (HBV) ayw strain; assay: HBV experimental assay system, HepG2-2.2.15, TaqMan PCR of secreted HBV DNA; type: cell-based; conditions: 10 micrograms per ml; HepG2-2.2.15, six days, HBV DNA in supernatant
[2] = test system: Tumor Necrosis Factor-a (TNF-a); assay: Th1/Th2 cytokine profiling assay, TNF-alpha; type: cell-based, mouse; conditions: 10 micrograms per ml; Ovalbumin-restimulated Balb/c spleen cells, 72 hours
Method: as §1

Interleukin-2 (IL-2) = assay: Th1/Th2 cytokine profiling assay, IL-2; type: cell-based, mouse; conditions: 10 micrograms per ml; Ovalbumin-restimulated Balb/c spleen cells, 72 hours
Method: as §1

Interleukin-4 (IL-4) = assay: Th1/Th2 cytokine profiling assay, IL-4; type: cell-based, mouse; conditions: 10 micrograms per ml; Ovalbumin-restimulated Balb/c spleen cells, 72 hours
Method: as §1

[3] = test system: Primary Human endothelial cells (HUVEC); assay: Endothelial cell migration assay; type: cell-based; conditions: 10 micrograms per ml, 22 hours
Method: Thereafter, designated concentration of testing peptides—10 micrograms per ml—was added in duplicate wells.

| Compound | antiviral activity of positive control compound (HCMV strain AD169; positive control, HCMV AD169) | increase of the tube formation of human endothelial cells (HUVEC) [%] | decrease of the production of IL-5 in murine spleen cells (Interleukin-5 (IL-5)) [%] | effect on the ceramide-induced apoptosis on human lung cells (Human A549 cells) | decrease of the production of IFN-γ in murine spleen cells (Interferon-γ (IFN-γ)) | inhibition of HBV replication as compared to the virus control infection [1] [%] | change of the production of TNF-alpha in murine spleen cells [2] | increase of the production of IL-2 in murine spleen cells (Interleukin-2 (IL-2)) [%] | inhibition of HCMV plaque formation as compared to the virus control experiment (HCMV strain AD169) | change of the production of IL-4 in murine spleen cells (Interleukin-4 (IL-4)) | inhibition of the migration of human endothelial cells [3] [%] |
| --- | --- | --- | --- | --- | --- | --- | --- | --- | --- | --- | --- |
| Nc1nc(O)c2ncn(COC(CO)CO)c2n1 [Ganciclovir, reference compound] | expected levels of antiviral activity | – | – | – | – | – | – | – | – | – | – |
| Phe-Glu-Trp-Thr-Pro-Gly-Tyr-Trp-Gln-Pro-Tyr-Ala-Leu-Pro-Leu-OH (FEWTPGYWQPYALPL-OH) [Peptide 2] | – | 4 | 38.8 | 28.6% | 37.5% | 26.3 | did not significantly change | 68.1 | did not inhibit | did not significantly change | – |
| Leu-Val-Val-Tyr-Pro-Trp-Thr-Gln-Arg-OH (LVVYPWTQR-OH) [Peptide 1] | – | 2 | 33 | did not reduce | did not significantly change | 24.3 | did not significantly change | 54.3 | did not inhibit | did not significantly change | 4 |
